These results are taken from US20250243180A1, “TARGETED PROTEIN DEGRADATION” (Monte Rosa Therapeutics AG, priority 2023, published 2025).

A word on the Dmax: it is the largest share of the target that was removed. As a reminder, the DC50 is the concentration at which degradation of the target reaches its halfway point. The EC50 is the concentration needed to bring the measured effect to its halfway point. Read a low EC50 as an effect from little substance.

Where a name gives a salt, the structure may show the parent alone. Read-outs that look alike come from different tables or passages of the source.

One experiment deals with NEK7 (Homo sapiens (Human), UniProt Q8TDX7+Q96SW2). The experiment is described as follows: NEK7 NanoBiT degradation assay in Cal51 NEK7 NanoBiT cell line. The experiment is classed as cell-based. The settings on record: Cal51 NEK7 NanoBiT cells, 24 hours; for Dmax: CAL-51. A digest of the protocol:
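Cal51 cells with CRISPR knock-in HiBiT-tagged endogenous NEK7 plus stable LgBiT, in live-cell Endurazine medium, seeded 16 h before dosing. Compounds at final 1 μM to 0.05 nM for 24 h at 37 °C, then luminescence read. Response normalized to plate controls and fitted with a 4-parameter logistic giving EC50.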

For a further experiment, the target named is CRBN-DDB1 (Homo sapiens (Human), UniProt Q96SW2). Briefly: Compound binding to CRBN by HTRF assay. The essentials: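 HTRF displacement of Cy5-thalidomide probe (100 nM) from His-tagged CRBN-DDB1 (2.5 nM) with anti-His terbium cryptate, in HEPES/NaCl/TCEP/EDTA/Tween20 buffer; 11-point 1:3 dilution series, 30 min at ambient temperature. Signal (665/620 nm) normalized to lenalidomide and DMSO controls; EC50 fitted, Ki by Cheng-Prusoff from geometric mean EC50.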
(Time-resolved FRET reads energy transfer from a long-lived donor to a nearby acceptor.)

The mark [1] stands for this setting: NEK7 degradation, read-out: NanoBiT Dmax.
[2] abbreviates: NEK7 degradation, read-out: NanoBiT DC50.

Sequence of CRBN-DDB1 (Q96SW2 whole entry): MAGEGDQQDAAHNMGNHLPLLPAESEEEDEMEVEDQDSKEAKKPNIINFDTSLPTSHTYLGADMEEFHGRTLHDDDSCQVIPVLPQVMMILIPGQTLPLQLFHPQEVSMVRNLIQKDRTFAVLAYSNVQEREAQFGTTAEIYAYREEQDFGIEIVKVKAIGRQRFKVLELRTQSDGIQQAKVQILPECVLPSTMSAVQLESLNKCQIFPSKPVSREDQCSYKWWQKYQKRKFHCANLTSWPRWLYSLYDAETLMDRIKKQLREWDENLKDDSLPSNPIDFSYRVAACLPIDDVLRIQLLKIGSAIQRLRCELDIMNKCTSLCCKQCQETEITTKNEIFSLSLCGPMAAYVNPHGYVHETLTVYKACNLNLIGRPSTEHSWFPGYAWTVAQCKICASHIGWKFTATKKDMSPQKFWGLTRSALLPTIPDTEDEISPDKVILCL
Sequence of CRBN-DDB1 (Q16531 whole entry partner): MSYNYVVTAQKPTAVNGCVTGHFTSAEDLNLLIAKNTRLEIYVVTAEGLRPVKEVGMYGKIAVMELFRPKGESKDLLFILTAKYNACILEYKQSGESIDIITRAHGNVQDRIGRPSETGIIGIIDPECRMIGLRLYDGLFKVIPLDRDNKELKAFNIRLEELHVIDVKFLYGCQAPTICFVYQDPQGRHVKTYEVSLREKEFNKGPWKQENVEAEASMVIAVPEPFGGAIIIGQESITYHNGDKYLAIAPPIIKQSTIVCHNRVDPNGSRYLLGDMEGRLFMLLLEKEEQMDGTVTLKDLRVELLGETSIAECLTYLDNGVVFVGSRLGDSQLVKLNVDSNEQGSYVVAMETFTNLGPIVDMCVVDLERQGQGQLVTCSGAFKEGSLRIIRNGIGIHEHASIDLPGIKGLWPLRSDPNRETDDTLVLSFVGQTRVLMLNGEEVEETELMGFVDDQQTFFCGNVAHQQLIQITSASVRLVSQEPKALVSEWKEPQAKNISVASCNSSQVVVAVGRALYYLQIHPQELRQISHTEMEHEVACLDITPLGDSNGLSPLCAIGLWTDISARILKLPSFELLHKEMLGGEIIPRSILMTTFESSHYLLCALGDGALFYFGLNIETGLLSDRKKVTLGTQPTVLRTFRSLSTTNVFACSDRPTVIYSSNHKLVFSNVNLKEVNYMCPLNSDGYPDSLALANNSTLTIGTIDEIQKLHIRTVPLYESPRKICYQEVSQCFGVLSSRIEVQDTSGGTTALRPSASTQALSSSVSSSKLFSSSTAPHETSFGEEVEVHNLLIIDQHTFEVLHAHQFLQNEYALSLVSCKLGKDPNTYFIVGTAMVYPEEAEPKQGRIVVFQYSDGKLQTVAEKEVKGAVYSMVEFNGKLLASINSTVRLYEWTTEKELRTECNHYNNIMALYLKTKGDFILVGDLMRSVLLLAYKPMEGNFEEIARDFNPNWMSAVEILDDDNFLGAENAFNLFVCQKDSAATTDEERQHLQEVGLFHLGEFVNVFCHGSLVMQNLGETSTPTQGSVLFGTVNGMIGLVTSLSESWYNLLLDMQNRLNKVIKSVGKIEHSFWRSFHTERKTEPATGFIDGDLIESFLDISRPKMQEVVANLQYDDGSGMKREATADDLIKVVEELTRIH
Sequence of NEK7 (Q8TDX7 whole entry): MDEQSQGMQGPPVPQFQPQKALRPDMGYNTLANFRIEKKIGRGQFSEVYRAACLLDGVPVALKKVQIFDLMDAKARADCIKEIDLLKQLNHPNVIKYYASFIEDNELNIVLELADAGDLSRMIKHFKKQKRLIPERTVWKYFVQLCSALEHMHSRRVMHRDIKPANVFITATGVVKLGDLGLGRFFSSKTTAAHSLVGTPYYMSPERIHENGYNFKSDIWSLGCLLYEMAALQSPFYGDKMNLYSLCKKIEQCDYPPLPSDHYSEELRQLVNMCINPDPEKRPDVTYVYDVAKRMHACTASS
Sequence of NEK7 (Q96SW2 whole entry): as the sequence (Q96SW2 whole entry) above
Sequence of NEK7 (Q16531 2-1140 partner): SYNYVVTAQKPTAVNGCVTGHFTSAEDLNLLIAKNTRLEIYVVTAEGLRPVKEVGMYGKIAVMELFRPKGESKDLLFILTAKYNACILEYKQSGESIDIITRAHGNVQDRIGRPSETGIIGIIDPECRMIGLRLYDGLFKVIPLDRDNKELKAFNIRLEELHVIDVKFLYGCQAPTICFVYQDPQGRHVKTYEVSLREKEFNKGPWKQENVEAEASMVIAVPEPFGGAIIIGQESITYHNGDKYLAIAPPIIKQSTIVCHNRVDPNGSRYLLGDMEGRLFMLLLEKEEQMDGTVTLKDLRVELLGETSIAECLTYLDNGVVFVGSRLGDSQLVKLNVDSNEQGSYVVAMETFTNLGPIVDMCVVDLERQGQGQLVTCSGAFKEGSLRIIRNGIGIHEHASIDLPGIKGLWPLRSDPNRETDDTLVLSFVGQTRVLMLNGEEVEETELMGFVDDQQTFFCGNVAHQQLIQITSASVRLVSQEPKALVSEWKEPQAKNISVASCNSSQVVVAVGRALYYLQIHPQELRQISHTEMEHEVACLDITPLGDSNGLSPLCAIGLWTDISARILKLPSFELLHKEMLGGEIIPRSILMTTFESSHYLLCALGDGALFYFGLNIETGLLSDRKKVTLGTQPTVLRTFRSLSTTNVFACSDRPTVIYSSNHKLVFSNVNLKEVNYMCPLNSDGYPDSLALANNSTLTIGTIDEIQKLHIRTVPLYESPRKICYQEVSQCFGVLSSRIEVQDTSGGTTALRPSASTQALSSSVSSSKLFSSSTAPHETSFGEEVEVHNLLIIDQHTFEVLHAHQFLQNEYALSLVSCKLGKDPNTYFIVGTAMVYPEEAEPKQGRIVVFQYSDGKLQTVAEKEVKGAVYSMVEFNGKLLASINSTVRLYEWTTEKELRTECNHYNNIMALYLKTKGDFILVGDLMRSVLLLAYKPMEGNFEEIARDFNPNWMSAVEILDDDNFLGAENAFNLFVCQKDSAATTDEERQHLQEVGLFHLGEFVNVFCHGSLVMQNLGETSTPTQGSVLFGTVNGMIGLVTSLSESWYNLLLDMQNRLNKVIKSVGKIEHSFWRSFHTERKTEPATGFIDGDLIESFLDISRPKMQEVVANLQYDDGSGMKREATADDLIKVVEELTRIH

Turning to `CN1CCC(C(=O)NCc2cc(Cl)c(C3CCC(=O)NC3=O)c(Cl)c2)(c2ccc(F)cc2)CC1` (stereo not drawn) [Compound 135, N-(3,5-dichloro-4-(2,6-dioxopiperidin-3-yl)benzyl)-4-(4-fluorophenyl)-1-methylpiperidine-4-carboxamide formate], the maximal degradation (Dmax) was 71% at NEK7 (read-out: NEK7 NanoBiT Dmax) and 50 to 75% at NEK7 (setting [1]). The DC50 on NEK7 (read-out: NEK7 NanoBiT DC50) was 16 nM; at NEK7 (setting [2]), at most 100 nM. In addition, the EC50 was 20 nM at CRBN-DDB1 and at most 100 nM on CRBN-DDB1 (HTRF class, Cereblon binding).

`CC(C)(C(=O)NCc1cc(Cl)c(C2CCC(=O)NC2=O)c(Cl)c1)c1cccnc1` (stereo not drawn) [Compound 99]: the greatest degradation seen (Dmax) at NEK7 (read-out: NEK7 NanoBiT Dmax) was 87%; on NEK7 (setting [1]) it was over 75%. Besides, the values for the DC50 on NEK7 (read-out: NEK7 NanoBiT DC50) and at NEK7 (setting [2]) were 8 nM and at most 100 nM, respectively. Besides, the EC50 on CRBN-DDB1 was 80 nM; on CRBN-DDB1 (HTRF class, Cereblon binding) it was at most 100 nM.

As for `CC(C)(C(=O)NCc1cc(Cl)c(C2CCC(=O)NC2=O)c(Cl)c1)c1cccc(NS(C)(=O)=O)c1` (stereo not drawn) [Compound 54], the maximal degradation (Dmax) at NEK7 (read-out: NEK7 NanoBiT Dmax) was 97%; on NEK7 (setting [1]), over 75%. For the same compound, the 50% degradation concentration (DC50) at NEK7 (read-out: NEK7 NanoBiT DC50) is 1 nM; at NEK7 (setting [2]), at most 100 nM. Further, the EC50 was 60 nM on CRBN-DDB1 and at most 100 nM on CRBN-DDB1 (HTRF class, Cereblon binding).

On to `CC(C)(C(=O)NCc1cc(Cl)c(C2CCC(=O)NC2=O)c(Cl)c1)c1nnc(C(F)F)o1` (stereo not drawn) [Compound 200], for which the maximal degradation (Dmax) was 74% on NEK7 (read-out: NEK7 NanoBiT Dmax) and 50 to 75% at NEK7 (setting [1]). The figures for the DC50 on NEK7 (read-out: NEK7 NanoBiT DC50) and at NEK7 (setting [2]) were 46 nM and at most 100 nM, respectively. Also, the EC50 was 170 nM at CRBN-DDB1 and 100 to 1000 nM at CRBN-DDB1 (HTRF class, Cereblon binding).

On to `CC(C)(C(=O)NCc1cc(Cl)c(C2CCC(=O)NC2=O)c(Cl)c1)c1cc(F)ccn1` (stereo not drawn) [Compound 149], for which the Dmax at NEK7 (read-out: NEK7 NanoBiT Dmax) is 85%; at NEK7 (setting [1]) it was over 75%. In addition, the 50% degradation concentration (DC50) was 12 nM on NEK7 (read-out: NEK7 NanoBiT DC50) and at most 100 nM at NEK7 (setting [2]). Moreover, the concentration for a half-maximal effect (EC50) on CRBN-DDB1 is 130 nM; at CRBN-DDB1 (HTRF class, Cereblon binding), 100 to 1000 nM.

For the compound `O=C1CCC(c2c(Cl)cc(CNC(=O)C3(c4ccc(F)cc4)CCOC3)cc2Cl)C(=O)N1` (stereo not drawn) [Compound 141], the Dmax on NEK7 (read-out: NEK7 NanoBiT Dmax) was 91%; on NEK7 (setting [1]) it was over 75%. Moreover, the DC50 at NEK7 (read-out: NEK7 NanoBiT DC50) is 6 nM; at NEK7 (setting [2]), at most 100 nM. For the same compound, the EC50 at CRBN-DDB1 is 20 nM; at CRBN-DDB1 (HTRF class, Cereblon binding), at most 100 nM.

As to `Cc1cnc(C(C)(C)C(=O)NCc2cc(Cl)c([C@@]3(F)CCC(=O)NC3=O)c(Cl)c2)nc1` (single isomer, unassigned) [Compound 244], the greatest degradation seen (Dmax) on NEK7 (read-out: NEK7 NanoBiT Dmax) was 19%; at NEK7 (setting [1]) it was at most 50%. Further, the figures for the 50% degradation concentration (DC50) at NEK7 (read-out: NEK7 NanoBiT DC50) and on NEK7 (setting [2]) were 1000 nM and over 1000 nM, respectively. In addition, the half-maximal effective concentration (EC50) is 220 nM at CRBN-DDB1 and 100 to 1000 nM on CRBN-DDB1 (HTRF class, Cereblon binding).

Turning to `CC(C)(C(=O)NCc1cc(Cl)c(C2CCC(=O)NC2=O)c(Cl)c1)c1cc(C(F)(F)F)on1` (stereo not drawn) [Compound 230, N-(3,5-dichloro-4-(2,6-dioxopiperidin-3-yl)benzyl)-2-methyl-2-(5-(trifluoromethyl)isoxazol-3-yl)propanamide], the Dmax at NEK7 (read-out: NEK7 NanoBiT Dmax) is 83%; at NEK7 (setting [1]), over 75%. Besides, the half-maximal degradation concentration (DC50) was 23 nM at NEK7 (read-out: NEK7 NanoBiT DC50) and at most 100 nM at NEK7 (setting [2]). In addition, the EC50 was 110 nM at CRBN-DDB1 and 100 to 1000 nM on CRBN-DDB1 (HTRF class, Cereblon binding).

With `CC(C)(C(=O)NCc1cc(Cl)c(C2CCC(=O)NC2=O)c(Cl)c1)c1ccc2cnncc2c1` (stereo not drawn) [Compound 35, N-(3,5-dichloro-4-(2,6-dioxopiperidin-3-yl)benzyl)-2-methyl-2-(phthalazin-6-yl)propanamide], the greatest degradation seen (Dmax) on NEK7 (read-out: NEK7 NanoBiT Dmax) is 77%; at NEK7 (setting [1]), over 75%. The results for the DC50 on NEK7 (read-out: NEK7 NanoBiT DC50) and at NEK7 (setting [2]) were 19 nM and at most 100 nM, respectively. Further, the EC50 is 130 nM on CRBN-DDB1 and 100 to 1000 nM at CRBN-DDB1 (HTRF class, Cereblon binding).

Regarding `CC(C)(C(=O)NCc1cc(Cl)c(C2CCC(=O)NC2=O)c(Cl)c1)c1cccc(F)c1` (stereo not drawn) [Compound 27], the Dmax on NEK7 (read-out: NEK7 NanoBiT Dmax) is 96%; at NEK7 (setting [1]), over 75%. Also, the DC50 on NEK7 (read-out: NEK7 NanoBiT DC50) is 1 nM; at NEK7 (setting [2]), at most 100 nM. In addition, the 50% effective concentration (EC50) at CRBN-DDB1 was 50 nM; at CRBN-DDB1 (HTRF class, Cereblon binding), at most 100 nM.

For `CC(C)(C(=O)NCc1cc(Cl)c(C2CCC(=O)NC2=O)c(Cl)c1)c1cnc(C#N)nc1` (stereo not drawn) [Compound 13], the Dmax was 73% on NEK7 (read-out: NEK7 NanoBiT Dmax) and 50 to 75% on NEK7 (setting [1]). Besides, the half-maximal degradation concentration (DC50) is 56 nM on NEK7 (read-out: NEK7 NanoBiT DC50) and at most 100 nM on NEK7 (setting [2]). The 50% effective concentration (EC50) at CRBN-DDB1 is 200 nM; at CRBN-DDB1 (HTRF class, Cereblon binding) it was 100 to 1000 nM.

With `CC(C)(C(=O)NCc1cc(Cl)c(C2CCC(=O)NC2=O)c(Cl)c1)c1cnc2ncsc2c1` (stereo not drawn) [Compound 52], the Dmax at NEK7 (read-out: NEK7 NanoBiT Dmax) was 67%; on NEK7 (setting [1]), 50 to 75%. The DC50 at NEK7 (read-out: NEK7 NanoBiT DC50) is 59 nM; on NEK7 (setting [2]), at most 100 nM. Besides, the EC50 was 90 nM on CRBN-DDB1 and at most 100 nM on CRBN-DDB1 (HTRF class, Cereblon binding).
